# From US20110158969A1, “COMPOSITIONS AND METHODS FOR USING STROMAL CELLS TO ENHANCE TREATMENT OF CENTRAL NERVOUS SYSTEM INJURIES” (HENRY FORD HEALTH SYSTEM, priority 2008, published 2011)
# How the values were obtained:
# Rat ICH Model = experiment: Striatal tissue loss (H & E staining, image analysis) in rat ICH model; type: in vivo; conditions: 14 days after ICH; relative to contralateral striatum; mean±standard error; mannitol 1.5 g/kg iv, 1 million cells intraarterial
# Description: Thirty-six male Wistar rats weighing from 270 to 320 grams were used for intracerebral hemorrhage studies. Stereotactic stabilization and localization were used in the rats under general anesthesia as previously described (Seyfried et al., 2006). ICH was induced by injecting 100 μl of autologous blood, obtained from the femoral vein, into the right striatum at a steady infusion rate of 10 μl per minute (Seyfried et al., 2004). Twenty four hours after ICH, the animals were divided into four experimental groups. Group 1 received only intraarterial (via internal carotid artery) injection of 1 million human primary fibroblasts in phosphate-buffered saline (PBS) as a control. Group 2 received intravenous injection of mannitol at a dose of 1.5 g/kg in PBS via the tail vein. Group 3 received intraarterial (internal carotid artery) injection of 1 million hBMSCs in PBS. Group 4 received intravenous injection of mannitol at a dose of 1.5 g/kg followed 10 minutes later by intraarterial injection of 1 million hBMSCs in PBS. All treatments were administered 24 hours after induction of ICH. All rats also received a daily intraperitoneal injection of 100 mg/kg BrdU starting at day 1 after ICH for 14 days.
# Histology and immunohistochemistry. […] Percentage of the striatal tissue loss compared to the contralateral striatum was calculated using an image analysis system (Data Translation, Marlboro, Mass.). […]
# [1] = tested on: Rat Intracerebral Hemorrhage (ICH) Model; experiment: Neurological severity score (NSS) test in rat ICH model; type: in vivo; conditions: end of second week (day 14) after ICH; vs human fibroblast control group; P<0.05 significant
# Description: (§1) Functional neurological tests. Functional neurological outcomes were measured by the neurological severity score test (NSS) (Chen et al., 2001) and the corner turn test (Zhang et al., 2002), as previously described in Seyfried et al., 2006. Statistical analysis. Statistical analysis of functional scores was performed using the Student's two-tailed t-test for independent samples.
# [2] = tested on: Rat Intracerebral Hemorrhage (ICH) Model; experiment: Corner turn test in rat ICH model; type: in vivo; conditions: end of second week (day 14) after ICH; vs human fibroblast control group; P<0.05 significant
# Description: as §1
# [3] = tested on: BrdU-positive cells in the boundary around the lesion; experiment: BrdU immunostaining, proliferating cells around the lesion; type: in vivo, rat; conditions: 14 days after ICH; vs control group; P<0.05
smiles,measurement,setting,value
OC[C@@H](O)[C@@H](O)[C@H](O)[C@H](O)CO [mannitol],percentage loss of striatal tissues on the side of hemorrhage,Rat ICH Model,25.9±1.75%
same,functional neurological outcome assessed by NSS,[1],failed to show any statistically significant neurological improvement
same,functional neurological outcome assessed by corner turn test,[2],failed to show any statistically significant neurological improvement
same,BrdU positive staining cells around the injured site,[3],significantly increased the BrdU labeling
